Reference: patent US20260356819A1, “OXOISOINDOLINYL-SUBSTITUTED […] DERIVATIVE AND USE THEREOF” (GLUETACS THERAPEUTICS (SHANGHAI) CO., LTD., priority 2023, published 2026)

Assays:
Format in all cases: cell-based
Settings in all cases: compounds at 50 nM and 500 nM
WEE1 = target: T1, WEE1 (Homo sapiens, UniProt P30291+Q96SW2); test: Western blot degradation of WEE1 in hPBMCs (24 h)
T1 construct: The supernatant was aspirated as the extracted total cell protein; endogenous in cells; host or cells: human peripheral blood mononuclear cells (hPBMCs)
Procedure, shortened: (§1)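 Compounds were tested at 50 nM and 500 nM on hPBMCs (1×10^6 cells/mL) for 24 h, alongside DMSO. Proteins were detected by Western blot after denaturation at 95 °C; remaining protein computed from normalised band grayscale.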

IKZF1 = target: T2, IKZF1 (Homo sapiens, UniProt Q13422+Q96SW2); test: Western blot degradation of IKZF1 in hPBMCs (24 h)
T2 construct: The supernatant was aspirated as the extracted total cell protein; endogenous in cells; host or cells: human peripheral blood mononuclear cells (hPBMCs)
Procedure, shortened: as §1

IKZF2 = target: T3, IKZF2 (Homo sapiens, UniProt Q96SW2+Q9UKS7); test: Western blot degradation of IKZF2 in hPBMCs (24 h)
T3 construct: The supernatant was aspirated as the extracted total cell protein; endogenous in cells; host or cells: human peripheral blood mononuclear cells (hPBMCs)
Procedure, shortened: as §1

IKZF3 = target: T4, IKZF3 (Homo sapiens, UniProt Q96SW2+Q9UKT9); test: Western blot degradation of IKZF3 in hPBMCs (24 h)
T4 construct: The supernatant was aspirated as the extracted total cell protein; endogenous in cells; host or cells: human peripheral blood mononuclear cells (hPBMCs)
Procedure, shortened: as §1

CK1α = target: T5, CK1α (Homo sapiens, UniProt P48729+Q96SW2); test: Western blot degradation of CK1α in hPBMCs (24 h)
T5 construct: The supernatant was aspirated as the extracted total cell protein; endogenous in cells; host or cells: human peripheral blood mononuclear cells (hPBMCs)
Procedure, shortened: as §1

GSPT1 = target: T6, GSPT1 (Homo sapiens, UniProt P15170+Q96SW2); test: Western blot degradation of GSPT1 in hPBMCs (24 h)
T6 construct: The supernatant was aspirated as the extracted total cell protein; endogenous in cells; host or cells: human peripheral blood mononuclear cells (hPBMCs)
Procedure, shortened: as §1

T1 sequence (P30291 whole entry): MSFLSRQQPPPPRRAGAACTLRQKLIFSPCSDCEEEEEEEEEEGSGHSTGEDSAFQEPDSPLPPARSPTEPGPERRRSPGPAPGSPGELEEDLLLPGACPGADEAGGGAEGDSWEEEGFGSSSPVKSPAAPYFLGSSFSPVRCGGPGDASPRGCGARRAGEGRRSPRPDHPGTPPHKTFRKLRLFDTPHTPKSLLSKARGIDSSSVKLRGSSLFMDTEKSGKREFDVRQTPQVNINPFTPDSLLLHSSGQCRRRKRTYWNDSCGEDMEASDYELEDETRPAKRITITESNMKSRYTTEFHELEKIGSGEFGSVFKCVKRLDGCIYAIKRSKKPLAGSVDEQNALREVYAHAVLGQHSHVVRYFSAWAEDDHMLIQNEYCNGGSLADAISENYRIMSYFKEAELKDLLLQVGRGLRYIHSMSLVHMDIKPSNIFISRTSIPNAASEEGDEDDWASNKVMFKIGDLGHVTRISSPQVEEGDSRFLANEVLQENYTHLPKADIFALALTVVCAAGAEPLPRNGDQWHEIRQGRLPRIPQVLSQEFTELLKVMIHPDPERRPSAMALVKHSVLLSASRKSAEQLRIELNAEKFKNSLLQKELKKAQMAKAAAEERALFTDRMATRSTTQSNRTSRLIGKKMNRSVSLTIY
T1 sequence (Q96SW2 whole entry): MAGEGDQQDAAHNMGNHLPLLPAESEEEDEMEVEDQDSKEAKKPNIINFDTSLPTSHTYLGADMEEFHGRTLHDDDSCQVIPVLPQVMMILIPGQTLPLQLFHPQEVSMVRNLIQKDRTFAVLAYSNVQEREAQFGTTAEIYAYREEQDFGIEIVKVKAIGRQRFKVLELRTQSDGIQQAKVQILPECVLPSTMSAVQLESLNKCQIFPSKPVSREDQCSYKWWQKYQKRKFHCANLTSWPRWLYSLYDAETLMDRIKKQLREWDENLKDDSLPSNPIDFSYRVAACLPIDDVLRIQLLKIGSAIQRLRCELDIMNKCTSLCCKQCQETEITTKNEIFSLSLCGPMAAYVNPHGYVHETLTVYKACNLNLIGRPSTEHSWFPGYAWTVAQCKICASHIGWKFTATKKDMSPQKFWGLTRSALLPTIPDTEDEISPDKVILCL
T1 sequence (Q16531 whole entry partner): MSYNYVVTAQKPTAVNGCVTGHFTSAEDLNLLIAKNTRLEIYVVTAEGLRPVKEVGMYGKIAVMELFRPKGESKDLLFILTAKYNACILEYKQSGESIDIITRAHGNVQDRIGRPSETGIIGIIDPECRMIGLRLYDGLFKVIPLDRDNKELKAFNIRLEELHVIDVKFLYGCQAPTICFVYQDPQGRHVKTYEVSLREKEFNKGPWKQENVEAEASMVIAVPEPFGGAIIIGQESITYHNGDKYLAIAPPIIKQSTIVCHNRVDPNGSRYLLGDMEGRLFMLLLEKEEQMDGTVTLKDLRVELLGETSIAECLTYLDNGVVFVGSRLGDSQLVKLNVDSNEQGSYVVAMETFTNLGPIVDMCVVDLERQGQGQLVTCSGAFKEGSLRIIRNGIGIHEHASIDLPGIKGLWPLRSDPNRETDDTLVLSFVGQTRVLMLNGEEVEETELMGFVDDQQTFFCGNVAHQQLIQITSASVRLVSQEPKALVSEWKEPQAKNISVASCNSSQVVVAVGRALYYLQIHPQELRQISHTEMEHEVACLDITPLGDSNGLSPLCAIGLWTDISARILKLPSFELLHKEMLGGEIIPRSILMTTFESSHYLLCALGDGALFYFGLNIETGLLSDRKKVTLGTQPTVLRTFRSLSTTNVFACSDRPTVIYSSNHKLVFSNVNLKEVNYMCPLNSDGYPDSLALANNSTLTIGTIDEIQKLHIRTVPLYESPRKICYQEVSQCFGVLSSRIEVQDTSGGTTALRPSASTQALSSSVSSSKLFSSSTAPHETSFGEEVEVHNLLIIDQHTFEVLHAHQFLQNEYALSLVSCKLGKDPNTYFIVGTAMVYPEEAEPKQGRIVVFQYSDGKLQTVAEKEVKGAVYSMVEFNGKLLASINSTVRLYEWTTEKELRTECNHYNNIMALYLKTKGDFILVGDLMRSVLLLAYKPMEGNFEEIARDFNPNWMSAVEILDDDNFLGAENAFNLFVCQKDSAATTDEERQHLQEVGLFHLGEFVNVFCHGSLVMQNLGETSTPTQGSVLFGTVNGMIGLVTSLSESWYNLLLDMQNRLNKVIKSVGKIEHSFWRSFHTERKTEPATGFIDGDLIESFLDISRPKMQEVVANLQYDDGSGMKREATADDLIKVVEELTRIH
T6 sequence (P15170 whole entry): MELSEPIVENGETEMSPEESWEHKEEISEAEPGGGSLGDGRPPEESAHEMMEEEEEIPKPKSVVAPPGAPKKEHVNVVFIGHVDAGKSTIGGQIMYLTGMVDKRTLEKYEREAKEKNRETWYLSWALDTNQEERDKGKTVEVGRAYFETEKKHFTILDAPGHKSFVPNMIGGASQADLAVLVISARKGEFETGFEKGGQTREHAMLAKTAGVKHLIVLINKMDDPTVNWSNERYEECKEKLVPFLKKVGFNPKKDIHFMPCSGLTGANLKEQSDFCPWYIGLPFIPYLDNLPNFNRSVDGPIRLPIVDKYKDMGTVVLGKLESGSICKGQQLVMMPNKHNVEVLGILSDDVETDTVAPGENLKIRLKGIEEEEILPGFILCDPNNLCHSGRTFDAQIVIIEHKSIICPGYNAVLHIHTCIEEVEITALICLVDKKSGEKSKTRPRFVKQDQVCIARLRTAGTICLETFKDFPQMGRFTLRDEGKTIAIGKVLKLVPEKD
T6 sequence (Q96SW2 whole entry): as the sequence (Q96SW2 whole entry) above
T6 sequence (Q16531 whole entry partner): as the sequence (Q16531 whole entry partner) above
T2 sequence (Q13422 whole entry): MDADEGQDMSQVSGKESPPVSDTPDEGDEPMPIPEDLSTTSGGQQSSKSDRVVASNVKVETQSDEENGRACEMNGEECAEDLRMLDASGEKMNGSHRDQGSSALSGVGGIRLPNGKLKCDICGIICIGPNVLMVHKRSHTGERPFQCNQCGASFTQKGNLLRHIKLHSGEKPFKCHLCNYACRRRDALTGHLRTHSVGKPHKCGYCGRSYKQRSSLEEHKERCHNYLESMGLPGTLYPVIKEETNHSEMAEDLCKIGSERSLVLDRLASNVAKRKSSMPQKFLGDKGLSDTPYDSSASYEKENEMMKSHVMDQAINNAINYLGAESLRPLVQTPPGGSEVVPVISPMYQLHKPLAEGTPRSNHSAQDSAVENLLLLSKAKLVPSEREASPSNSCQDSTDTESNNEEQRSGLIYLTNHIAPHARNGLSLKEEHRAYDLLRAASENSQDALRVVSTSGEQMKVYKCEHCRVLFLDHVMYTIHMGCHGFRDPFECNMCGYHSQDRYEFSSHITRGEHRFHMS
T2 sequence (Q96SW2 whole entry): as the sequence (Q96SW2 whole entry) above
T2 sequence (Q16531 whole entry partner): as the sequence (Q16531 whole entry partner) above
T3 sequence (Q9UKS7 whole entry): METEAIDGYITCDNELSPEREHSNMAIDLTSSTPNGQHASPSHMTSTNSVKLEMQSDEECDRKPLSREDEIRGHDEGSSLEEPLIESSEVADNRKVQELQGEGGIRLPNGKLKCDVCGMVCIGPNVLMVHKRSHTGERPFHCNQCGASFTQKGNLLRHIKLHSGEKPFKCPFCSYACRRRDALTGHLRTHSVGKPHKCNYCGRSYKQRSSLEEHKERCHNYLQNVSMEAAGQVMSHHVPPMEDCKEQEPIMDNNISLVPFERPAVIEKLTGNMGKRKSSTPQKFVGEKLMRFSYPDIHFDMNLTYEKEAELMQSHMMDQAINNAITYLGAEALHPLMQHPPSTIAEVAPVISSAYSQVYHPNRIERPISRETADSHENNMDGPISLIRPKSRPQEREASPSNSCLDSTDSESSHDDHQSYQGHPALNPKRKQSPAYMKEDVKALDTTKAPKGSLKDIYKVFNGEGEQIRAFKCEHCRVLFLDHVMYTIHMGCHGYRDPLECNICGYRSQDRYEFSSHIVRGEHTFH
T3 sequence (Q96SW2 whole entry): as the sequence (Q96SW2 whole entry) above
T3 sequence (Q16531 whole entry partner): as the sequence (Q16531 whole entry partner) above
T4 sequence (Q9UKT9 whole entry): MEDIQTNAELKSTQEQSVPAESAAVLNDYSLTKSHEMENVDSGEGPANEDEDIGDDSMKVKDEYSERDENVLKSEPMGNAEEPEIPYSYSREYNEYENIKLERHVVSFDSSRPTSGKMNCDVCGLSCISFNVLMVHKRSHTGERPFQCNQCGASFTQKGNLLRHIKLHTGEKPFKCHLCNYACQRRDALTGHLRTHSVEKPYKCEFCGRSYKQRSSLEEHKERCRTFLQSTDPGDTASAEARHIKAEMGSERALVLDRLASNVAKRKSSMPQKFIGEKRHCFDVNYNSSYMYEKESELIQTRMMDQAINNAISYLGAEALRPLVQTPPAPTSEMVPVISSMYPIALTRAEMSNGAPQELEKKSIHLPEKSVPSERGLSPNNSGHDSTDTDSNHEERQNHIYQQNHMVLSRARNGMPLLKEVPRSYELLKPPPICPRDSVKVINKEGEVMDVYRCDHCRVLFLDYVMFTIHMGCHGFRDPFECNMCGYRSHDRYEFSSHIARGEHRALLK
T4 sequence (Q96SW2 whole entry): as the sequence (Q96SW2 whole entry) above
T4 sequence (Q16531 whole entry partner): as the sequence (Q16531 whole entry partner) above

Row | Structure (SMILES) | WEE1 substrate protein remaining % (WEE1) | IKZF1 substrate protein remaining % (IKZF1) | IKZF2 substrate protein remaining % (IKZF2) | IKZF3 substrate protein remaining % (IKZF3) | CK1α substrate protein remaining % (CK1α) | GSPT1 substrate protein remaining % (GSPT1)
1 | O=C1CCN(N2C(=O)c3ccc(CN4CCN(c5nccc(F)c5F)CC4)cc3C2=O)C(=O)N1 [GT-07162, 5-((4-(3,4-difluoropyridin-2-yl)piperazin-1-yl)methyl)-2-(2,4-dioxotetrahydropyrimidin-1(2H)-yl)isoindoline-1,3-dione] | B (80%< substrate protein remaining % ≤100%) | B (80%< substrate protein remaining % ≤100%) | A (0% ≤ substrate protein remaining % ≤80%) | B (80%< substrate protein remaining % ≤100%) | A (0% ≤ substrate protein remaining % ≤80%) | A (0% ≤ substrate protein remaining % ≤80%)
2 | O=C1CCN(N2C(=O)c3ccc(CN4CC=C(c5cccc(Cl)c5Cl)CC4)cc3C2=O)C(=O)N1 [GT-05249, 5-((4-(2,3-dichlorophenyl)-3,6-dihydropyridin-1(2H)-yl)methyl)-2-(2,4-dioxotetrahydropyrimidin-1(2H)-yl)isoindoline-1,3-dione] | B (80%< substrate protein remaining % ≤100%) | A (0% ≤ substrate protein remaining % ≤80%) | B (80%< substrate protein remaining % ≤100%) | B (80%< substrate protein remaining % ≤100%) | B (80%< substrate protein remaining % ≤100%) | A (0% ≤ substrate protein remaining % ≤80%)
3 | O=C1CCN(N2C(=O)c3ccc(CN4CC(C5CCOc6cc(F)ccc65)C4)cc3C2=O)C(=O)N1 (stereo not drawn) [GT-07715, 2-(2,4-dioxotetrahydropyrimidin-1(2H)-yl)-5-((3-(7-fluorochroman-4-yl)azetidin-1-yl)methyl)isoindoline-1,3-dione] | B (80%< substrate protein remaining % ≤100%) | B (80%< substrate protein remaining % ≤100%) | B (80%< substrate protein remaining % ≤100%) | B (80%< substrate protein remaining % ≤100%) | A (0% ≤ substrate protein remaining % ≤80%) | A (0% ≤ substrate protein remaining % ≤80%)
4 | Cc1csc2ncnc(C3=CCN(Cc4ccc5c(c4)C(=O)N(N4CCC(=O)NC4=O)C5=O)CC3)c12 [GT-08428, 2-(2,4-dioxotetrahydropyrimidin-1(2H)-yl)-5-((4-(5-methylthieno[2,3-d]pyrimidin-4-yl)-3,6-dihydropyridin-1(2H)-yl)methyl)isoindoline-1,3-dione] | A (0% ≤ substrate protein remaining % ≤80%) | B (80%< substrate protein remaining % ≤100%) | A (0% ≤ substrate protein remaining % ≤80%) | A (0% ≤ substrate protein remaining % ≤80%) | B (80%< substrate protein remaining % ≤100%) | B (80%< substrate protein remaining % ≤100%)
5 | O=C1CCN(N2C(=O)c3ccc(CN4CCN(c5ncc(Cl)cc5Cl)CC4)cc3C2=O)C(=O)N1 [GT-06969, 5-((4-(3,5-dichloropyridin-2-yl)piperazin-1-yl)methyl)-2-(2,4-dioxotetrahydropyrimidin-1(2H)-yl)isoindoline-1,3-dione] | A (0% ≤ substrate protein remaining % ≤80%) | B (80%< substrate protein remaining % ≤100%) | A (0% ≤ substrate protein remaining % ≤80%) | B (80%< substrate protein remaining % ≤100%) | B (80%< substrate protein remaining % ≤100%) | B (80%< substrate protein remaining % ≤100%)
6 | CC1(C)CC(c2ccc(Cl)cc2)=C(CN2CCN(Cc3ccc4c(c3)CN(N3CCC(=O)NC3=O)C4=O)CC2)CO1 [GT-07332, 1-(5-((4-((4-(4-chlorophenyl)-6,6-dimethyl-5,6-dihydro-2H-pyran-3-yl)methyl)piperazin-1-yl)methyl)-1-oxoisoindolin-2-yl)dihydropyrimidine-2,4(1H,3H)-dione] | A (0% ≤ substrate protein remaining % ≤80%) | A (0% ≤ substrate protein remaining % ≤80%) | B (80%< substrate protein remaining % ≤100%) | A (0% ≤ substrate protein remaining % ≤80%) | B (80%< substrate protein remaining % ≤100%) | A (0% ≤ substrate protein remaining % ≤80%)
7 | O=C1CCN(N2Cc3cc(CN4CCN(c5ccc(Cl)cc5Cl)CC4)ccc3C2=O)C(=O)N1 [GT-06772, 1-(5-((4-(2,4-dichlorophenyl)piperazin-1-yl)methyl)-1-oxoisoindolin-2-yl)dihydropyrimidine-2,4(1H,3H)-dione] | A (0% ≤ substrate protein remaining % ≤80%) | B (80%< substrate protein remaining % ≤100%) | A (0% ≤ substrate protein remaining % ≤80%) | A (0% ≤ substrate protein remaining % ≤80%) | A (0% ≤ substrate protein remaining % ≤80%) | A (0% ≤ substrate protein remaining % ≤80%)
8 | O=C1CCN(N2C(=O)c3ccc(CN4CCC(c5ccnc6cc(F)ccc56)CC4)cc3C2=O)C(=O)N1 [GT-07689, 2-(2,4-dioxotetrahydropyrimidin-1(2H)-yl)-5-((4-(7-fluoroquinolin-4-yl)piperidin-1-yl)methyl)isoindoline-1,3-dione] | B (80%< substrate protein remaining % ≤100%) | B (80%< substrate protein remaining % ≤100%) | B (80%< substrate protein remaining % ≤100%) | B (80%< substrate protein remaining % ≤100%) | A (0% ≤ substrate protein remaining % ≤80%) | A (0% ≤ substrate protein remaining % ≤80%)
9 | O=C1CCN(N2C(=O)c3ccc(CN4CCCN(c5cccc(Cl)c5Cl)CC4)cc3C2=O)C(=O)N1 [GT-07439, 5-((4-(2,3-dichlorophenyl)-1,4-diazepan-1-yl)methyl)-2-(2,4-dioxotetrahydropyrimidin-1(2H)-yl)isoindoline-1,3-dione] | B (80%< substrate protein remaining % ≤100%) | B (80%< substrate protein remaining % ≤100%) | B (80%< substrate protein remaining % ≤100%) | B (80%< substrate protein remaining % ≤100%) | A (0% ≤ substrate protein remaining % ≤80%) | A (0% ≤ substrate protein remaining % ≤80%)
10 | O=C1CCN(N2Cc3cc(CN4CCN(c5ccnc(Cl)c5Cl)CC4)ccc3C2=O)C(=O)N1 [GT-07169, 1-(5-((4-(2,3-dichloropyridin-4-yl)piperazin-1-yl)methyl)-1-oxoisoindolin-2-yl)dihydropyrimidine-2,4(1H,3H)-dione] | A (0% ≤ substrate protein remaining % ≤80%) | B (80%< substrate protein remaining % ≤100%) | B (80%< substrate protein remaining % ≤100%) | B (80%< substrate protein remaining % ≤100%) | B (80%< substrate protein remaining % ≤100%) | B (80%< substrate protein remaining % ≤100%)
11 | O=C1CCN(N2C(=O)c3ccc(CN4CCN(c5cccc(F)c5)CC4)cc3C2=O)C(=O)N1 [GT-06724, 2-(2,4-dioxotetrahydropyrimidin-1(2H)-yl)-5-((4-(3-fluorophenyl)piperazin-1-yl)methyl)isoindoline-1,3-dione] | A (0% ≤ substrate protein remaining % ≤80%) | A (0% ≤ substrate protein remaining % ≤80%) | B (80%< substrate protein remaining % ≤100%) | B (80%< substrate protein remaining % ≤100%) | B (80%< substrate protein remaining % ≤100%) | B (80%< substrate protein remaining % ≤100%)
12 | O=C1CCN(N2Cc3cc(CN4CCN(CC5=C(c6ccc(F)cc6)CCCC5)CC4)ccc3C2=O)C(=O)N1 [GT-07297, 1-(5-((4-((4′-fluoro-3,4,5,6-tetrahydro-[1,1′-biphenyl]-2-yl)methyl)piperazin-1-yl)methyl)-1-oxoisoindolin-2-yl)dihydropyrimidine-2,4(1H,3H)-dione] | A (0% ≤ substrate protein remaining % ≤80%) | B (80%< substrate protein remaining % ≤100%) | A (0% ≤ substrate protein remaining % ≤80%) | A (0% ≤ substrate protein remaining % ≤80%) | A (0% ≤ substrate protein remaining % ≤80%) | A (0% ≤ substrate protein remaining % ≤80%)
